Source: ChEMBL document CHEMBL1157124, “Synthesis and anticancer evaluation of alpha-lipoic acid derivatives” (Bioorg Med Chem Lett, 2010)

What was measured:
[1] = system: CCRF S-180; test: animal or person; details: Mus musculus, CCRF S-180, po, read-out: INH
Description: Antitumor activity against mouse S180 cells xenografted in ICR mouse assessed as inhibition of tumor weight at 100 mg/kg, ig administered 2 days after tumor inoculation qd for 7 days relative to control

[2] = system: CCRF S-180; test: Antitumor activity against mouse S180 cells xenografted in ICR mouse assessed as reduction of tumor weight at 100 mg/kg, ig administered 2 days after tumor inoculation qd for 7 days; type: functional; details: route intragastric
[3] = system: Bel-7402; test: Cytotoxicity against human Bel7402 cells assessed as growth inhibition at 100 ug/ml after 24 hrs by MTT assay; type: functional; details: Bel-7402, 24 h, read-out: GI
[4] = system: Bel-7402; test: Cytotoxicity against human Bel7402 cells assessed as growth inhibition at 10 ug/ml after 24 hrs by MTT assay; type: functional; details: Bel-7402, 24 h, read-out: GI
[5] = system: NCI-H460; test: Cytotoxicity against human NCI-H460 cells assessed as growth inhibition at 0.1 ug/ml after 24 hrs by MTT assay; type: functional; details: NCI-H460, 24 h, read-out: GI
[6] = system: PC-3; test: Cytotoxicity against human PC3 cells assessed as growth inhibition at 0.1 ug/ml after 24 hrs by MTT assay; type: functional; details: PC-3, 24 h, read-out: GI
[7] = Cytotoxicity against human HO8910 cells assessed as growth inhibition at 1 ug/ml after 24 hrs by MTT assay; type: functional; details: HO-8910, 24 h, read-out: GI
[8] = system: KB; test: Cytotoxicity against human KB cells assessed as growth inhibition at 10 ug/ml after 24 hrs by MTT assay; type: functional; details: read-out: GI
[9] = system: KB; test: Cytotoxicity against human KB cells assessed as growth inhibition at 100 ug/ml after 24 hrs by MTT assay; type: functional; details: read-out: GI
[10] = system: PC-3; test: Cytotoxicity against human PC3 cells assessed as growth inhibition at 10 ug/ml after 24 hrs by MTT assay; type: functional; details: PC-3, 24 h, read-out: GI
[11] = system: NCI-H460; test: Cytotoxicity against human NCI-H460 cells assessed as growth inhibition at 100 ug/ml after 24 hrs by MTT assay; type: functional; details: NCI-H460, 24 h, read-out: GI
[12] = system: PC-3; test: Cytotoxicity against human PC3 cells assessed as growth inhibition at 1 ug/ml after 24 hrs by MTT assay; type: functional; details: PC-3, 24 h, read-out: GI
[13] = system: Bel-7402; test: Cytotoxicity against human Bel7402 cells assessed as growth inhibition at 0.1 ug/ml after 24 hrs by MTT assay; type: functional; details: Bel-7402, 24 h, read-out: GI
[14] = system: NCI-H460; test: Cytotoxicity against human NCI-H460 cells assessed as growth inhibition at 1 ug/ml after 24 hrs by MTT assay; type: functional; details: NCI-H460, 24 h, read-out: GI
[15] = system: KB; test: Cytotoxicity against human KB cells assessed as growth inhibition at 1 ug/ml after 24 hrs by MTT assay; type: functional; details: read-out: GI
[16] = Cytotoxicity against human HO8910 cells assessed as growth inhibition at 10 ug/ml after 24 hrs by MTT assay; type: functional; details: HO-8910, 24 h, read-out: GI
[17] = Cytotoxicity against human HO8910 cells assessed as growth inhibition at 0.1 ug/ml after 24 hrs by MTT assay; type: functional; details: HO-8910, 24 h, read-out: GI
[18] = system: NCI-H460; test: Cytotoxicity against human NCI-H460 cells assessed as growth inhibition at 10 ug/ml after 24 hrs by MTT assay; type: functional; details: NCI-H460, 24 h, read-out: GI
[19] = system: KB; test: Cytotoxicity against human KB cells assessed as growth inhibition at 0.1 ug/ml after 24 hrs by MTT assay; type: functional; details: read-out: GI
[20] = Cytotoxicity against human HO8910 cells assessed as growth inhibition at 100 ug/ml after 24 hrs by MTT assay; type: functional; details: HO-8910, 24 h, read-out: GI
[21] = system: Bel-7402; test: Cytotoxicity against human Bel7402 cells assessed as growth inhibition at 1 ug/ml after 24 hrs by MTT assay; type: functional; details: Bel-7402, 24 h, read-out: GI
[22] = system: PC-3; test: Cytotoxicity against human PC3 cells assessed as growth inhibition at 100 ug/ml after 24 hrs by MTT assay; type: functional; details: PC-3, 24 h, read-out: GI
[23] = system: DU-145; test: Cytotoxicity against human DU145 cells; type: functional, cell-based
[24] = system: CCRF S-180; test: Antitumor activity against mouse S180 cells xenografted in ICR mouse assessed as reduction of tumor weight at 200 mg/kg, ig administered 2 days after tumor inoculation qd for 7 days; type: functional; details: route intragastric

`O=P1(N(CCCl)CCCl)NCCCO1` (centres undefined) [CYCLOPHOSPHAMIDE ANHYDROUS] showed an inhibition in vivo at 100 mg/kg [1] of 74.5% and an Activity [2] of 0.39 g.

With `O=C(CCCCC1CCSS1)Nc1ccccc1` (centres undefined) the inhibition of growth at 100 µg/mL [3] was 60.6%, the inhibition of growth at 10 µg/mL [4] was 2.27% and the inhibition of growth at 0.1 µg/mL [5] was 9.48%. The inhibition of growth at 0.1 µg/mL [6] was 5.5%, the inhibition of growth at 1 µg/mL [7] was 10.9% and the inhibition of growth at 10 µg/mL [8] was 10.2%. It also gave an inhibition of growth at 100 µg/mL [9] of 65.3%, an inhibition of growth at 10 µg/mL [10] of 13% and an inhibition of growth at 100 µg/mL [11] of 47.6%. It also gave an inhibition of growth at 1 µg/mL [12] of 13.6%, an inhibition of growth at 0.1 µg/mL [13] of 3.22% and an inhibition of growth at 1 µg/mL [14] of 5.86%. The inhibition of growth at 1 µg/mL [15] was 6.06%, the inhibition of growth at 10 µg/mL [16] was 4.71% and the inhibition of growth at 0.1 µg/mL [17] was 11.2%. The inhibition of growth at 10 µg/mL [18] was 0.75%, the inhibition of growth at 0.1 µg/mL [19] was 10.9% and the inhibition of growth at 100 µg/mL [20] was 57.8%. It also gave an inhibition of growth at 1 µg/mL [21] of 3.28% and an inhibition of growth at 100 µg/mL [22] of 59.2%.

For `O=C(CCCCC(S)CCS)Nc1ccc(OC(F)(F)F)cc1` (centres undefined), the inhibition of growth at 100 µg/mL [3] was 49.7%, the inhibition of growth at 10 µg/mL [4] was 14.2% and the inhibition of growth at 0.1 µg/mL [5] was 17.2%. For the same molecule, the inhibition of growth at 0.1 µg/mL [6] was 14.9%, the inhibition of growth at 1 µg/mL [7] was 0.56% and the inhibition of growth at 10 µg/mL [8] was 15%. The inhibition of growth at 100 µg/mL [9] was 73.3%, the inhibition of growth at 10 µg/mL [10] was 42.5% and the inhibition of growth at 100 µg/mL [11] was 65.1%. It also gave an inhibition of growth at 1 µg/mL [12] of 12.6%, an inhibition of growth at 1 µg/mL [14] of 19.1% and an inhibition of growth at 1 µg/mL [15] of 6%. It also gave an inhibition of growth at 10 µg/mL [16] of 6.11%, an inhibition of growth at 10 µg/mL [18] of 29.2% and an inhibition of growth at 0.1 µg/mL [19] of 7.27%. The inhibition of growth at 100 µg/mL [20] was 66.8%, the inhibition of growth at 1 µg/mL [21] was 7.32% and the inhibition of growth at 100 µg/mL [22] was 75.5%.

`CSCCCC(=O)SCCC(CCCCC(=O)OCCN(C)C)SC(=O)CCCSC` (centres undefined) showed an IC50 [23] of 240 µM.

`CS/C=C\C(=O)SCCC(CCCCC(=O)OCCN(C)C)SC(=O)/C=C\SC` (centres undefined) gave an IC50 [23] of 50 µM.

For `CS/C=C/C(=O)SCCC(CCCCC(=O)OCCN(C)C)SC(=O)/C=C/SC` (centres undefined), the IC50 [23] was 45 µM.

`O=C(CCCCC1CCSS1)Nc1ccc(F)cc1` (centres undefined) gave an inhibition of growth at 100 µg/mL [3] of 74.5%, an inhibition of growth at 10 µg/mL [4] of 1.92% and an inhibition of growth at 0.1 µg/mL [5] of 15.6%. It also gave an inhibition of growth at 0.1 µg/mL [6] of 15.6%, an inhibition of growth at 1 µg/mL [7] of 5.82% and an inhibition of growth at 10 µg/mL [8] of 4.44%. The inhibition of growth at 100 µg/mL [9] was 85.4%, the inhibition of growth at 10 µg/mL [10] was 13.8% and the inhibition of growth at 100 µg/mL [11] was 64.5%. The inhibition of growth at 1 µg/mL [12] was 14.5%, the inhibition of growth at 1 µg/mL [14] was 11.4% and the inhibition of growth at 1 µg/mL [15] was 4.05%. For the same molecule, the inhibition of growth at 10 µg/mL [16] was 3.89%, the inhibition of growth at 0.1 µg/mL [17] was 6.59% and the inhibition of growth at 10 µg/mL [18] was 18.8%. For the same molecule, the inhibition of growth at 0.1 µg/mL [19] was 11.3%, the inhibition of growth at 100 µg/mL [20] was 78.1% and the inhibition of growth at 1 µg/mL [21] was 1.79%. The inhibition of growth at 100 µg/mL [22] was 80.8%.

For `O=C(CCCCCCC(=O)Nc1ccccc1)NO` [VORINOSTAT], the Activity [24] was 1.53 g and the Activity [2] was 1.61 g.
